From PMC5572576 (The Lancet. Oncology, 2017)
Like-named read-outs stand apart in the source and are kept apart here. Marks after values point to notes of the source that are not given here.

Tested on: patients with R/R AML
[1] = 120 mg, possibly related to treatment

## CCc1nc(C(N)=O)c(Nc2ccc(N3CCC(N4CCN(C)CC4)CC3)c(OC)c2)nc1NC1CCOCC1 [gilteritinib]
20 mg
  Deaths, primary cause AML: 3 n
20 mg, one death considered possibly related to treatment
  Deaths, primary cause Intracranial hemorrhage: 2 ^c n
40 mg
  Deaths, primary cause AML: 5 n
  Deaths, primary cause Multi-organ failure: 1 n
80 mg
  Deaths, primary cause AML: 5 n
  Deaths, primary cause Bacteremia/staphylococcal bacteremia: 2 n
  Deaths, primary cause Diabetic ketoacidosis: 1 n
  Deaths, primary cause Respiratory failure: 1 n
80 mg/d
  Treatment-related Grade ≥3 elevated AST: 1 n
  Treatment-related Grade ≥3 elevated alanine aminotransferase: 1 n
80 mg, one death considered possibly related to treatment
  Deaths, primary cause Septic shock: 2 ^c n
80 mg, possibly related to treatment
  Deaths, primary cause Hemoptysis: 1 ^b n
120 mg
  Deaths, primary cause AML: 10 n
  Deaths, primary cause Colitis/neutropenic colitis: 1 n
  Deaths, primary cause Death NOS: 2 n
  Deaths, primary cause Hepatic infection: 1 n
  Deaths, primary cause Multi-organ failure: 1 n
  Deaths, primary cause Pneumonia: 2 n
  Deaths, primary cause Respiratory failure: 1 n
  Deaths, primary cause Sepsis/staphylococcal sepsis: 1 n
120 mg/d
  Treatment-related Grade ≥3 diarrhea: 1 n
  Treatment-related Grade ≥3 elevated alanine aminotransferase: 1 n
[1]
  Deaths, primary cause Neutropenia: 1 ^b n
  Deaths, primary cause Ventricular fibrillation: 1 ^b n
200 mg
  Deaths, primary cause AML: 13 n
  Deaths, primary cause Anemia: 1 n
  Deaths, primary cause Bronchopulmonary aspergillosis: 1 n
  Deaths, primary cause Cardiac arrest: 1 n
  Deaths, primary cause Cellulitis: 1 n
  Deaths, primary cause Cerebrovascular ischemia: 1 n
  Deaths, primary cause Colitis/neutropenic colitis: 1 n
  Deaths, primary cause Death NOS: 1 n
  Deaths, primary cause Febrile neutropenia: 1 n
  Deaths, primary cause Hypoxia: 1 n
  Deaths, primary cause Intracranial hemorrhage: 1 n
  Deaths, primary cause Loss of consciousness: 1 n
  Deaths, primary cause Lung infection: 1 n
  Deaths, primary cause Multi-organ failure: 5 n
  Deaths, primary cause Pneumonia: 2 n
  Deaths, primary cause Renal failure: 1 n
  Deaths, primary cause Respiratory failure: 5 n
  Deaths, primary cause Sepsis/staphylococcal sepsis: 8 n
  Deaths, primary cause Septic shock: 2 n
  Deaths, primary cause Sudden death: 1 n
  Deaths, primary cause Ventricular tachycardia: 1 n
200 mg/d
  Treatment-related Grade ≥3 diarrhea: 2 n
  Treatment-related Grade ≥3 elevated AST: 3 n
  Treatment-related Grade ≥3 elevated alanine aminotransferase: 4 n
200 mg, possibly related to treatment
  Deaths, primary cause Pulmonary embolism: 1 ^b n
300 mg
  Deaths, primary cause AML: 5 n
  Deaths, primary cause Renal failure: 1 n
  Deaths, primary cause Respiratory failure: 1 n
300 mg/d
  Treatment-related Grade ≥3 elevated AST: 1 n
450 mg
  Deaths, primary cause Cardiac arrest: 1 n
Table 2
  Urinary tract infection, Grade 3: 12 (5%) n (%)
Doses up to 200mg
  Probability of experiencing a DLT: < 20%
human, in vivo
  AE associated with dose reductions: diarrhea: 1%
  AE associated with dose reductions: fatigue: 1%
  AE that led to study discontinuation: progressive disease: 6%
  AE that led to study discontinuation: sepsis: 3%
  Acute renal failure, Grade 1: 7 (3%) n (%)
  Acute renal failure, Grade 2: 9 (4%) n (%)
  Acute renal failure, Grade 3: 8 (3%) n (%)
  Acute renal failure, Grade 4: 1 (0·4%) n (%)
  Anemia, Grade 1: 1 (0·4%) n (%)
  Anemia, Grade 2: 23 (9%) n (%)
  Anemia, Grade 3: 55 (22%) n (%)
  Anemia, Grade 4: 6 (2%) n (%)
  Anemia, Grade 5: 1 (0·4%) n (%)
  Arthralgia, Grade 1: 19 (8%) n (%)
  Arthralgia, Grade 2: 8 (3%) n (%)
  Asthenia, Grade 1: 14 (6%) n (%)
  Asthenia, Grade 2: 10 (4%) n (%)
  Asthenia, Grade 3: 6 (2%) n (%)
  Atrial fibrillation, Grade 3: 5 (2%) n (%)
  Back pain, Grade 3: 5 (2%) n (%)
  Bacteremia, Grade 3: 13 (5%) n (%)
  Bacteremia, Grade 4: 3 (1·2%) n (%)
  Bacteremia, Grade 5: 1 (0·4%) n (%)
  Cellulitis, Grade 3: 7 (3%) n (%)
  Cellulitis, Grade 5: 1 (0·4%) n (%)
  Clostridium difficile colitis, Grade 3: 5 (2%) n (%)
  Constipation, Grade 1: 40 (16%) n (%)
  Constipation, Grade 2: 17 (7%) n (%)
  Cough, Grade 1: 40 (16%) n (%)
  Cough, Grade 2: 14 (6%) n (%)
  Decreased appetite, Grade 1: 12 (5%) n (%)
  Decreased appetite, Grade 2: 18 (7%) n (%)
  Decreased neutrophil count, Grade 2: 5 (2%) n (%)
  Decreased neutrophil count, Grade 3: 7 (3%) n (%)
  Decreased neutrophil count, Grade 4: 14 (6%) n (%)
  Decreased platelet count, Grade 1: 1 (0·4%) n (%)
  Decreased platelet count, Grade 2: 3 (1·2%) n (%)
  Decreased platelet count, Grade 3: 7 (3%) n (%)
  Decreased platelet count, Grade 4: 30 (12%) n (%)
  Decreased white blood cell count, Grade 3: 6 (2%) n (%)
  Decreased white blood cell count, Grade 4: 9 (4%) n (%)
  Diarrhea, Grade 1: 47 (19%) n (%)
  Diarrhea, Grade 2: 32 (13%) n (%)
  Diarrhea, Grade 3: 13 (5%) n (%)
  Dizziness, Grade 1: 36 (14%) n (%)
  Dizziness, Grade 2: 11 (4%) n (%)
  Drug-related TEAEs leading to discontinuation: 10%
  Dysgeusia, Grade 1: 23 (9%) n (%)
  Dysgeusia, Grade 2: 4 (1·6%) n (%)
  Dyspnea, Grade 1: 29 (12%) n (%)
  Dyspnea, Grade 2: 18 (7%) n (%)
  Dyspnea, Grade 3: 11 (4%) n (%)
  Dyspnea, Grade 4: 1 (0.4%) n (%)
  Edema peripheral, Grade 1: 43 (17%) n (%)
  Edema peripheral, Grade 2: 21 (8%) n (%)
  Edema peripheral, Grade 3: 3 (1.2%) n (%)
  Elevated ALT, Grade 1: 25 (10%) n (%)
  Elevated ALT, Grade 2: 9 (4%) n (%)
  Elevated ALT, Grade 3: 13 (5%) n (%)
  Elevated AST, Grade 1: 33 (13%) n (%)
  Elevated AST, Grade 2: 18 (7%) n (%)
  Elevated AST, Grade 3: 14 (6%) n (%)
  Elevated AST, Grade 4: 1 (0·4%) n (%)
  Elevated blood alkaline phosphatase, Grade 1: 28 (11%) n (%)
  Elevated blood alkaline phosphatase, Grade 2: 5 (2%) n (%)
  Elevated blood bilirubin, Grade 3: 6 (2%) n (%)
  Elevated blood bilirubin, Grade 4: 1 (0·4%) n (%)
  Elevated blood creatinine, Grade 1: 23 (9%) n (%)
  Elevated blood creatinine, Grade 2: 12 (5%) n (%)
  Elevated blood phosphocreatine kinase, Grade 1: 7 (3%) n (%)
  Elevated blood phosphocreatine kinase, Grade 2: 7 (3%) n (%)
  Elevated blood phosphocreatine kinase, Grade 3: 7 (3%) n (%)
  Elevated blood phosphocreatine kinase, Grade 4: 4 (1·6%) n (%)
  Epistaxis, Grade 1: 36 (14%) n (%)
  Epistaxis, Grade 2: 9 (4%) n (%)
  Fall, Grade 1: 17 (7%) n (%)
  Fall, Grade 2: 10 (4%) n (%)
  Fall, Grade 3: 7 (3%) n (%)
  Fall, Grade 4: 1 (0.4) n (%)
  Fatigue, Grade 1: 31 (12%) n (%)
  Fatigue, Grade 2: 37 (15%) n (%)
  Fatigue, Grade 3: 15 (6%) n (%)
  Febrile neutropenia, Grade 3: 9 (36%) n (%)
  Febrile neutropenia, Grade 4: 7 (3%) n (%)
  Febrile neutropenia, Grade 5: 1 (0·4%) n (%)
  Fungal pneumonia, Grade 3: 11 (4%) n (%)
  Gastrointestinal hemorrhage, Grade 3: 4 (1·6%) n (%)
  Gastrointestinal hemorrhage, Grade 4: 1 (0·4%) n (%)
  Grade 3/4 adverse event: anemia: 24%
  Grade 3/4 adverse event: febrile neutropenia: 39%
  Grade 3/4 adverse event: pneumonia: 11%
  Grade 3/4 adverse event: sepsis: 11%
  Grade 3/4 adverse event: thromobocytopenia: 13%
  Headache, Grade 1: 22 (9%) n (%)
  Headache, Grade 2: 6 (2%) n (%)
  Hyperglycemia, Grade 3: 8 (3%) n (%)
  Hyperglycemia, Grade 4: 1 (0·4%) n (%)
  Hyperphosphatemia, Grade 3: 14 (6%) n (%)
  Hyperphosphatemia, Grade 4: 3 (1·2%) n (%)
  Hypertension, Grade 1: 6 (2%) n (%)
  Hypertension, Grade 2: 11 (4%) n (%)
  Hypertension, Grade 3: 8 (3%) n (%)
  Hyperuricemia, Grade 3: 5 (2%) n (%)
  Hyperuricemia, Grade 4: 1 (0·4%) n (%)
  Hypoalbuminemia, Grade 1: 5 (2%) n (%)
  Hypoalbuminemia, Grade 2: 22 (9%) n (%)
  Hypoalbuminemia, Grade 3: 5 (2%) n (%)
  Hypocalcaemia, Grade 1: 13 (5%) n (%)
  Hypocalcaemia, Grade 2: 15 (6%) n (%)
  Hypocalcaemia, Grade 3: 14 (6%) n (%)
  Hypocalcaemia, Grade 4: 1 (0·4%) n (%)
  Hypokalaemia, Grade 1: 22 (9%) n (%)
  Hypokalaemia, Grade 2: 14 (6%) n (%)
  Hypokalaemia, Grade 3: 7 (3%) n (%)
  Hypokalaemia, Grade 4: 2 (0·8%) n (%)
  Hypomagnesemia, Grade 1: 29 (12%) n (%)
  Hypomagnesemia, Grade 2: 2 (0·8%) n (%)
  Hyponatraemia, Grade 1: 18 (7%) n (%)
  Hyponatraemia, Grade 2: 4 (1·6%) n (%)
  Hyponatraemia, Grade 3: 10 (4%) n (%)
  Hyponatraemia, Grade 4: 2 (0·8%) n (%)
  Hypotension, Grade 1: 7 (3%) n (%)
  Hypotension, Grade 2: 21 (8%) n (%)
  Hypotension, Grade 3: 16 (6%) n (%)
  Hypotension, Grade 4: 2 (0·8%) n (%)
  Hypoxia, Grade 1: 1 (0·4%) n (%)
  Hypoxia, Grade 2: 8 (3%) n (%)
  Hypoxia, Grade 3: 13 (5%) n (%)
  Hypoxia, Grade 4: 5(2%) n (%)
  Hypoxia, Grade 5: 1 (0·4%) n (%)
  Increased transaminase, Grade 3: 6 (2%) n (%)
  Insomnia, Grade 1: 14 (6%) n (%)
  Insomnia, Grade 2: 10 (4%) n (%)
  Leukocytosis, Grade 3: 9 (4%) n (%)
  Leukocytosis, Grade 4: 2 (0·8%) n (%)
  Leukopenia, Grade 3: 2 (0·8%) n (%)
  Leukopenia, Grade 4: 3 (1·2%) n (%)
  Lung infection, Grade 3: 7 (3%) n (%)
  Lung infection, Grade 5: 1 (0·4%) n (%)
  Mucosal inflammation, Grade 3: 5 (2%) n (%)
  Mucosal inflammation, Grade 4: 2 (0·8%) n (%)
  Multi-organ failure, Grade 5: 7 (3%) n (%)
  Muscle weakness, Grade 3: 5 (2%) n (%)
  Nausea, Grade 1: 30 (12%) n (%)
  Nausea, Grade 2: 19 (8%) n (%)
  Nausea, Grade 3: 5 (2%) n (%)
  Neutropenia, Grade 2: 2 (0·8%) n (%)
  Neutropenia, Grade 3: 2 (0·8%) n (%)
  Neutropenia, Grade 4: 18 (7%) n (%)
  Neutropenia, Grade 5: 1 (0·4%) n (%)
  Patients requiring dose reductions: 10%
  Patients with maximum post-baseline QTcF interval >500 ms: 4%
  Pleural effusion, Grade 3: 5 (2%) n (%)
  Pneumonia, Grade 1: 1 (0·4%) n (%)
  Pneumonia, Grade 2: 3 (1·2%) n (%)
  Pneumonia, Grade 3: 26 (10%) n (%)
  Pneumonia, Grade 4: 1 (0·4%) n (%)
  Pneumonia, Grade 5: 4 (1·6%) n (%)
  Progressive AML, Grade 3: 2 (0.8) n (%)
  Progressive AML, Grade 5: 41 (16%) n (%)
  Pyrexia, Grade 1: 36 (14%) n (%)
  Pyrexia, Grade 2: 16 (6%) n (%)
  Pyrexia, Grade 3: 13 (5%) n (%)
  QT Prolongation, Grade 3: 8 (3%) n (%)
  Respiratory failure, Grade 3: 2 (0·8%) n (%)
  Respiratory failure, Grade 4: 5 (2%) n (%)
  Respiratory failure, Grade 5: 7 (3%) n (%)
  Sepsis, Grade 2: 1 (0·4%) n (%)
  Sepsis, Grade 3: 5 (2%) n (%)
  Sepsis, Grade 4: 23 (9%) n (%)
  Sepsis, Grade 5: 7 (3%) n (%)
  Septic shock, Grade 4: 2 (0·8%) n (%)
  Septic shock, Grade 5: 4 (1·6%) n (%)
  Serious AE considered related to treatment: acute renal failure: 2%
  Serious AE considered related to treatment: febrile neutropenia: 2%
  Serious AE considered related to treatment: pyrexia: 1%
  Serious AE considered related to treatment: sepsis: 1%
  Serious adverse event: acute renal failure: 10%
  Serious adverse event: bacteremia: 6%
  Serious adverse event: febrile neutropenia: 31%
  Serious adverse event: pneumonia: 11%
  Serious adverse event: progressive disease: 17%
  Serious adverse event: pyrexia: 8%
  Serious adverse event: respiratory failure: 6%
  Serious adverse event: sepsis: 14%
  Skin infection, Grade 3: 5 (2%) n (%)
  Stomatitis, Grade 1: 12 (5%) n (%)
  Stomatitis, Grade 2: 10 (4%) n (%)
  Subdural hematoma, Grade 3: 4 (1·6%) n (%)
  Subdural hematoma, Grade 4: 2 (0·8%) n (%)
  Syncope, Grade 3: 13 (5%) n (%)
  Thrombocytopenia, Grade 1: 1 (0·4%) n (%)
  Thrombocytopenia, Grade 2: 5 (2%) n (%)
  Thrombocytopenia, Grade 3: 2 (0·8%) n (%)
  Thrombocytopenia, Grade 4: 31 (12%) n (%)
  Treatment-related mortality from neutropenia: < 1%
  Vomiting, Grade 1: 35 (14%) n (%)
  Vomiting, Grade 2: 7 (3%) n (%)
  Vomiting, Grade 3: 5 (2%) n (%)
In vivo
  Deaths considered possibly/probably related to treatment: Seven
